Values of other authors as cited in patent US8968799B2, “Time delayed release mechanism for energizing composition and method of use” (Rise-N-Shine L.L.C., priority 2006, dated 2015).

What was measured:
[1] = particularly as methylcobalamin; healthy men and women
[2] = cold, fatigue, sleep deprivation

Structure (SMILES)	effect on sleep time, sleep quality and daytime alertness [1]	effect on cognitive performance and mood under acute stress [2]
C/C1=C2/[N-][C@H]([C@H](CC(N)=O)[C@@]2(C)CCC(=O)NC[C@@H](C)OP(=O)([O-])O[C@H]2[C@@H](O)[C@@H](n3cnc4cc(C)c(C)cc43)O[C@@H]2CO)[C@]2(C)N=C(/C(C)=C3N=C(/C=C4N=C1[C@@H](CCC(N)=O)C\4(C)C)[C@@H](CCC(N)=O)[C@]\3(C)CC(N)=O)[C@@H](CCC(N)=O)[C@]2(C)CC(N)=O.[CH3-].[Co+3] [vitamin B12, methylcobalamin]	decrease sleep time yet improve sleep quality and daytime alertness	
N[C@@H](Cc1ccc(O)cc1)C(=O)O [Tyrosine, 4-hydroxyphenylalanine]		appears to prevent the substantial decline
